Assays:
Assay type in all cases: cell-based
[1] = target: T1, Helios (Homo sapiens, UniProt Q96SW2+Q9UKS7); experiment: Immunoblot of Helios levels in Jurkat cells; settings: 1 μM; for degradation of Helios (immunoblot): 4 h; for protein abundance of Helios (immunoblot): 16 h
T1 construct: immunoblots from Jurkat cells treated with the indicated compounds; endogenous in cells; host or cells: Jurkat cells
Procedure: (§1) FIG. 1A is a set of immunoblots of Jurkat cells treated with 1 μM of the indicated (DKY709 and Ia-1 to Ia-8) compounds for 4 hours, showing the levels of Ikaros, Helios, CDK4, CDK6, and tubulin for each compound.
(§2) FIG. 1B is a set of immunoblots of Jurkat cells treated with the Helios degrader DKY709, the triple degrader Ia-8, and the paired negative control compound 17 for 4 hours, showing the levels of Ikaros, Helios, CDK4, CDK6, and tubulin for each compound at 0.1 μM and 1 μM.
(§3) FIG. 2 is a set of immunoblots of Jurkat cells treated with the indicated compounds (palbociclib, DKY709, Ia-8, and 17) at 0.1 μM and 1 μM for 16 hours.
(§4) The structure of DKY709 (3-(5-(1-benzylpiperidin-4-yl)-1-oxoisoindolin-2-yl)piperidine-2,6-dione) is shown here: […]

[2] = tested on: Jurkat cells; experiment: IL-2 levels by ELISA after TCR stimulation; settings: Jurkat cells pre-treated with 1 μM for 24 h, then TCR-stimulated for 18 h
Procedure: FIG. 4 is a graph of [IL2] for the indicated compounds in Jurkat cells upon TCR-stimulation with a-CD3/CD28.
Quantification of IL-2 levels by ELISA from Jurkat cells pre-treated with 1 μM of the indicated compounds for 24 h and then TCR-stimulated for 18 h. Results are shown in FIG. 4 as mean±SD (untreated, n=3; other conditions, n=4) (*p<0.05). […] The structure of 19 (N-(4-(4-(6-((6-acetyl-8-cyclopentyl-5-methyl-7-oxo-7,8-dihydropyrido[2,3-d]pyrimidin-2-yl)amino)pyridin-3-yl)piperazin-1-yl)butyl)-2-((2-(2,6-dioxopiperidin-3-yl)-1,3-dioxoisoindolin-4-yl)oxy)acetamide) is shown here: […]

[3] = tested on: phosphorylated Rb; experiment: Immunoblot of phosphorylated Rb in Jurkat cells; settings: 1 μM, 16 h
Procedure: as §3

[4] = target: T2, CDK6 (Homo sapiens, UniProt Q00534); experiment: Immunoblot of CDK6 levels in Jurkat cells; settings: 1 μM; for degradation of CDK6 (immunoblot): 4 h; for protein abundance of CDK6 (immunoblot): 16 h
T2 construct: immunoblots from Jurkat cells treated with the indicated compounds; endogenous in cells; host or cells: Jurkat cells
Procedure: as §1, §2, §3, §4

[5] = target: T3, CDK4 (Homo sapiens, UniProt P11802); experiment: Immunoblot of CDK4 levels in Jurkat cells; settings: 1 μM; for degradation of CDK4 (immunoblot): 4 h; for protein abundance of CDK4 (immunoblot): 16 h
T3 construct: immunoblots from Jurkat cells treated with the indicated compounds; endogenous in cells; host or cells: Jurkat cells
Procedure: as §1, §2, §3, §4

[6] = tested on: Jurkat cells; experiment: Propidium iodide staining for DNA content (G1 arrest); settings: 100 nM, 24 h
Procedure: FIG. 3A is a set of histograms and the quantification of the DNA content using propidium iodide (PI) staining after treatment of Jurkat cells with the indicated compounds (palbociclib, DKY709, 18, Ia-6, 16, Ia-8, and 17) at 100 nM for 24 h.
The structure of 18 (N-(4-(4-(6-((6-acetyl-8-cyclopentyl-5-methyl-7-oxo-7,8-dihydropyrido[2,3-d]pyrimidin-2-yl)amino)pyridin-3-yl)piperazin-1-yl)butyl)-2-((2-(1-methyl-2,6-dioxopiperidin-3-yl)-1,3-dioxoisoindolin-4-yl)amino)acetamide) is shown here: […]

[7] = tested on: Jurkat cells; experiment: Cell proliferation quantified by CellTiter-Glo; settings: Homo sapiens, 72 h, dose curve, 3 d, read-out: anti-proliferative activity
From the text: FIG. 3B is a graph of normalized luminescence versus concentration (log[inhibitor], M) of the indicated compounds (palbociclib, Ia-8, and 17) assessed by CellTiterGlo after treatment of Jurkat cells for 3 d.

[8] = target: T4, Ikaros (Homo sapiens, UniProt Q13422); experiment: Immunoblot of Ikaros levels in Jurkat cells; settings: 1 μM, 4 h
T4 construct: endogenous in cells; host or cells: Jurkat cells
Procedure: as §1, §2, §4

T2 sequence (Q00534 whole entry): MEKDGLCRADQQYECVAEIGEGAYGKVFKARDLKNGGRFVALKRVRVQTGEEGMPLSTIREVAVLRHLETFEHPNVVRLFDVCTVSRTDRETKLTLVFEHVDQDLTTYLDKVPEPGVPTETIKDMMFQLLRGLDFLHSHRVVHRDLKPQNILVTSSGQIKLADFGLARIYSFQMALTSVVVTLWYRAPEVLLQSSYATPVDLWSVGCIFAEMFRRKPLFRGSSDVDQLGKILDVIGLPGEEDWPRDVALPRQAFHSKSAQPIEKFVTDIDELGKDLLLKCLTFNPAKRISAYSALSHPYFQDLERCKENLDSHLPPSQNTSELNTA
T3 sequence (P11802 whole entry): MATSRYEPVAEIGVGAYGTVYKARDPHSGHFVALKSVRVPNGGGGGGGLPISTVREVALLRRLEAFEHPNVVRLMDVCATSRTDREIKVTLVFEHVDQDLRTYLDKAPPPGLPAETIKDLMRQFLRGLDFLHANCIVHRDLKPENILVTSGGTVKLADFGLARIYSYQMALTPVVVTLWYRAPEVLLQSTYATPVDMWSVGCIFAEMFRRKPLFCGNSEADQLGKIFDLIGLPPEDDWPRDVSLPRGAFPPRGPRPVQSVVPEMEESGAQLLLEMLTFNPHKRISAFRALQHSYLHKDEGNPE
T1 sequence (Q9UKS7 whole entry): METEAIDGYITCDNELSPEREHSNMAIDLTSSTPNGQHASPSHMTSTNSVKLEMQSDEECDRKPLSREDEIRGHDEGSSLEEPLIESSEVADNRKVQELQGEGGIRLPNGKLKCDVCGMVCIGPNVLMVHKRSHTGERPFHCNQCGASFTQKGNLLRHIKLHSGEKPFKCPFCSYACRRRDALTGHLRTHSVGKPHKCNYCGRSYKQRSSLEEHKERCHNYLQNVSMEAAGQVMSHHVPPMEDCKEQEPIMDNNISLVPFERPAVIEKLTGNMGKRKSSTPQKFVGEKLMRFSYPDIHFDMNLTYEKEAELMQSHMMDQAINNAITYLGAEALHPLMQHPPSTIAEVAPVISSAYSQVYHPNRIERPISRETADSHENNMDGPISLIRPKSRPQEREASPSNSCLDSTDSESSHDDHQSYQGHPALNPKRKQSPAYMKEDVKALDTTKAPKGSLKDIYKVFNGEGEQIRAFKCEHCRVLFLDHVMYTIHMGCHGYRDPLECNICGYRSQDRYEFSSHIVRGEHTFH
T1 sequence (Q96SW2 whole entry): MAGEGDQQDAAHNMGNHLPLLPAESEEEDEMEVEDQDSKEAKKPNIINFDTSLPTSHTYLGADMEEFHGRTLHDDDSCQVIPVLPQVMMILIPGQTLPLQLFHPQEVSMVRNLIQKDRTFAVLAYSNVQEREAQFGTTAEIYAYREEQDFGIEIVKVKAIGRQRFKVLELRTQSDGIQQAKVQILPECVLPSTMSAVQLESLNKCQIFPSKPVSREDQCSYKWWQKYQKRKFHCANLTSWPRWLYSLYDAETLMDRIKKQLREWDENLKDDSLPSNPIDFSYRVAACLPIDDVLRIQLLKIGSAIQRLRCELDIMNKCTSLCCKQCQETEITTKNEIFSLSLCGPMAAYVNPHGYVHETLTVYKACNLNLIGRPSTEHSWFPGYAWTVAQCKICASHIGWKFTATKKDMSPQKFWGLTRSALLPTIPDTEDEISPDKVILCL
T1 sequence (Q16531 whole entry partner): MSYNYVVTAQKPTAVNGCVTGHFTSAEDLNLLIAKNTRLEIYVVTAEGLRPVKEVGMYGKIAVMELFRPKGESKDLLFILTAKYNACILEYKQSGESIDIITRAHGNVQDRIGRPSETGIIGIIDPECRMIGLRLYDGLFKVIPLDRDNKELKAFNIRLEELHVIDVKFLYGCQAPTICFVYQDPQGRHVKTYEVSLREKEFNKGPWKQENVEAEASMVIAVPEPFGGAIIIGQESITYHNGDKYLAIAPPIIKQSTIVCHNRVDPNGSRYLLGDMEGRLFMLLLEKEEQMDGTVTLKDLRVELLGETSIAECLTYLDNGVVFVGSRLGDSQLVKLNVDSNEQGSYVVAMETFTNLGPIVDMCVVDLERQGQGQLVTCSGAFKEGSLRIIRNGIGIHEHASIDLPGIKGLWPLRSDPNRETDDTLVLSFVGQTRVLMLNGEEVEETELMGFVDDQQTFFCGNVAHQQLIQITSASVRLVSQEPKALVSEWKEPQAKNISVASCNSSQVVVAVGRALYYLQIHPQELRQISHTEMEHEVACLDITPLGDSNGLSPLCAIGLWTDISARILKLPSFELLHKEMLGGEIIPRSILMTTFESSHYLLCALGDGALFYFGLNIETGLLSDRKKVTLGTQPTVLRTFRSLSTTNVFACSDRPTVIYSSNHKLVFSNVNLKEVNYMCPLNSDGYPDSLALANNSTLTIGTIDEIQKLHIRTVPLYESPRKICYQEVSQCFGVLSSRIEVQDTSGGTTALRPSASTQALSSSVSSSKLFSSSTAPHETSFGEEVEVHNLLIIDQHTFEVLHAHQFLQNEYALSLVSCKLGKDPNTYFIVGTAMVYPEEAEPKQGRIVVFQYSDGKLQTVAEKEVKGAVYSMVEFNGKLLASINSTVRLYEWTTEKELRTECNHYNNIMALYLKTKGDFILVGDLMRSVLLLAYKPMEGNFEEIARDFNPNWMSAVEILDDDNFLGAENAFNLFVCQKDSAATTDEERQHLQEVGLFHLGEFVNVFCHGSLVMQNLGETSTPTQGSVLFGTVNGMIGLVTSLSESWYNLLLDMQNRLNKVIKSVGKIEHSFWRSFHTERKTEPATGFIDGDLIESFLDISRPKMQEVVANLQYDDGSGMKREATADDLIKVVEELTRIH
T4 sequence (Q96SW2 whole entry partner): as the sequence (Q96SW2 whole entry) above
T4 sequence (Q16531 whole entry partner): as the sequence (Q16531 whole entry partner) above
T4 sequence (Q13422 whole entry): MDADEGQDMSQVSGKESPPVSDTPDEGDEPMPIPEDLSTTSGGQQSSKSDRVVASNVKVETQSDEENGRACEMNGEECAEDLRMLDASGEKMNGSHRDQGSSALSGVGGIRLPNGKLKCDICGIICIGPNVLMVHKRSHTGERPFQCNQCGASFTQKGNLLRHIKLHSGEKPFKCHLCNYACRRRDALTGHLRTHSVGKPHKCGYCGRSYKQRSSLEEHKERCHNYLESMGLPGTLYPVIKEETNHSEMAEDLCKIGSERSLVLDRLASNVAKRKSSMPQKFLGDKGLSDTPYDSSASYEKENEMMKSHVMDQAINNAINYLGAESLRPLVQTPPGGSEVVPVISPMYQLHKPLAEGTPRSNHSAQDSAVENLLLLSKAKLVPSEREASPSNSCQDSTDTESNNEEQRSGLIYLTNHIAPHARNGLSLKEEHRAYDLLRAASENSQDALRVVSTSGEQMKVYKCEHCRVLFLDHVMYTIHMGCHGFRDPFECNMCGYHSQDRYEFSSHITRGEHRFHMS

CC(=O)c1c(C)c2cnc(Nc3ccc(N4CCN(CCOc5ccc(CN6CCC(c7ccc8c(c7)CN(C7CCC(=O)N(C)C7=O)C8=O)CC6)cc5)CC4)cn3)nc2n(C2CCCC2)c1=O (centres unmarked) [compound 17, 3-(5-(1-(4-(2-(4-(6-((6-acetyl-8-cyclopentyl-5-methyl-7-oxo-7,8-dihydropyrido[2,3-d]pyrimidin-2-yl)amino)pyridin-3-yl)piperazin-1-yl)ethoxy)benzyl)piperidin-4-yl)-1-oxoisoindolin-2-yl)-1-methylpiperidine-2,6-dione]
degradation of Helios (immunoblot) [1]: had no degradation activity
protein abundance of Helios (immunoblot) [1]: had minimal effects
IL-2 secretion [2]: had activity similar to that of palbociclib
levels of phosphorylated Rb (immunoblot) [3]: had minimal effects
degradation of CDK6 (immunoblot) [4]: had no degradation activity
protein abundance of CDK6 (immunoblot) [4]: had minimal effects
degradation of CDK4 (immunoblot) [5]: had no degradation activity
protein abundance of CDK4 (immunoblot) [5]: had minimal effects
induction of G1 arrest [6]: did not
IC50 [7]: 244 nM

CC(=O)c1c(C)c2cnc(Nc3ccc(N4CCN(CCOc5ccc(CN6CCC(c7ccc8c(c7)CN(C7CCC(=O)NC7=O)C8=O)CC6)cc5)CC4)cn3)nc2n(C2CCCC2)c1=O (centres unmarked) [Ia-8, 3-(5-(1-(4-(2-(4-(6-((6-acetyl-8-cyclopentyl-5-methyl-7-oxo-7,8-dihydropyrido[2,3-d]pyrimidin-2-yl)amino)pyridin-3-yl)piperazin-1-yl)ethoxy)benzyl)piperidin-4-yl)-1-oxoisoindolin-2-yl)piperidine-2,6-dione]
degradation of Helios (immunoblot) [1]: induced the degradation of CDK4, CDK6, and Helios
protein abundance of Helios (immunoblot) [1]: induced the triple degradation of Helios, CDK4, and CDK6
IL-2 secretion [2]: induced elevated levels of IL2 that were comparable to that of 18
levels of phosphorylated Rb (immunoblot) [3]: reduced the levels of phosphorylated Rb
degradation of Ikaros (immunoblot) [8]: but not Ikaros
degradation of CDK6 (immunoblot) [4]: induced the degradation of CDK4, CDK6, and Helios
protein abundance of CDK6 (immunoblot) [4]: induced the triple degradation of Helios, CDK4, and CDK6
degradation of CDK4 (immunoblot) [5]: induced the degradation of CDK4, CDK6, and Helios
protein abundance of CDK4 (immunoblot) [5]: induced the triple degradation of Helios, CDK4, and CDK6
induction of G1 arrest [6]: induced G1 arrest
IC50 [7]: 166 nM

Nc1cccc2c1CN(C1CCC(=O)NC1=O)C2=O (centres unmarked) [Lenalidomide, reference compound]
IL-2 secretion [2]: elevated IL-2 secretion, although it did not reach statistical significance

O=C1CCC(N2Cc3cc(C4CCN(Cc5ccccc5)CC4)ccc3C2=O)C(=O)N1 (centres unmarked) [DKY709, 3-(5-(1-benzylpiperidin-4-yl)-1-oxoisoindolin-2-yl)piperidine-2,6-dione, reference compound]
degradation of Helios (immunoblot) [1]: only induced degradation of Helios
protein abundance of Helios (immunoblot) [1]: induced Helios degradation
IL-2 secretion [2]: elevated IL-2 secretion, although it did not reach statistical significance
levels of phosphorylated Rb (immunoblot) [3]: without affecting the levels of phosphorylated Rb
degradation of CDK6 (immunoblot) [4]: did not affect CDK4 or CDK6 abundance
degradation of CDK4 (immunoblot) [5]: did not affect CDK4 or CDK6 abundance
induction of G1 arrest [6]: but not DKY709, induced G1 arrest

Reference: US20240376096A1, “SMALL MOLECULE CYCLIN DEPENDENT KINASE 4/6 (CDK4/6) AND IKZF2 (HELIOS) DEGRADERS AND METHODS OF USE THEREOF” (DANA-FARBER CANCER INSTITUTE, INC., priority 2021, published 2024)
